# Measured values reported in patent publication US4623641A, “Method of treating ulcers and erosions in the gastrointestinal system using PGI2 -methyl ester-beta cyclodextrin inclusion complexes” (Chinoin Gyogyszer es Vegyeszeti Termekek Gyara R.T., priority 1985, dated 1986).
# Experiments:
# [1] = test system: stress ulcer; assay: Stress ulcer test (immobilized rats, ulcer index); type: in vivo, female wistar rats; conditions: for U.I. (delta %): control = 100
# Description: For the following tests 200-250 g female wistar rats were fasted for 24 hours before the experiment. Water was given ad libium. A. STRESS ULCER TEST The rats were immobilized on their backs for 24 hours. After immobilization the animals were killed, and their stomachs were prepared for ulcer analysis. The gastric cytoprotective effect of PCCD was tested by administering it in the following way: Case A: At 0, 6th, 12th and 18th hour after the immobilization. Administrations were carried out both ip and per os. In both cases the animals were killed and their stomachs prepared for ulcer analysis. In each experiment the ulcer index was calculated. In the calculation of the U.I., each mm^2 of ulcer or erosion is 1 point. Bleeding results in an additional 5 points. Perforation means an additional 10 points. The number of animals is (n=20) in each group. Mean (%)±S.E.M. is calculated. Statistical analysis is done according to the Student's T-Test. Significance level, p is less than 0.05.
# [2] = test system: gastric mucosa; conditions: in vivo; cited from earlier work
# [3] = in vivo; cited from earlier work
# [4] = test system: gastric lesions on the corpus mucosa; assay: Gastric cytoprotective test (ethanol-induced gastric lesions, A. Robert); type: in vivo, rats; conditions: for ED50: Rattus norvegicus, PCCD values relate to active ingredient
# Description: For the following tests 200-250 g female wistar rats were fasted for 24 hours before the experiment. Water was given ad libium.
# C. GASTRIC CYTOPROTECTIVE TEST
# The following method according to the abovementioned reference was employed:
# The cytoprotective substances were applied before giving ethanol p.o. or subcutaneously. As controls, prostacylin (PGI2) and PGE2 were used.
# Evaluation was carried out by killing the animals and then removing their stomachs. The number of gastric lesions was determined in each case. The dose of the cytoprotective compounds giving a 50% inhibiting effect was determined. The number of gastric erosions in the stomachs of animals not treated with a cytoprotective agent was designated 100%.
# [5] = Stability on oral application (acidic pH of the stomach); type: physicochemical; conditions: oral administration
# [6] = 100 micrograms/kg i.p., PCCD data calculated for active ingredient
structure (smiles),measurement,setting,value
OC[C@H]1O[C@@H]2O[C@H]3[C@H](O)[C@@H](O)[C@@H](O[C@H]4[C@H](O)[C@@H](O)[C@@H](O[C@H]5[C@H](O)[C@@H](O)[C@@H](O[C@H]6[C@H](O)[C@@H](O)[C@@H](O[C@H]7[C@H](O)[C@@H](O)[C@@H](O[C@H]8[C@H](O)[C@@H](O)[C@@H](O[C@H]1[C@H](O)[C@H]2O)O[C@@H]8CO)O[C@@H]7CO)O[C@@H]6CO)O[C@@H]5CO)O[C@@H]4CO)O[C@@H]3CO [Beta-cyclodextrin],U.I. ± S.E.M.,[1]; 5 mg/kg i.p.,6.8 ± 2.15
same,U.I. (delta %),[1]; 5 mg/kg i.p.,77.9%
CN/C(=N/CCSCc1nc[nH]c1C)NC#N [Cimetidine],U.I. ± S.E.M.,[1]; 10 mg/kg i.p.,3.0 ± 1.08
same,U.I. (delta %),[1]; 10 mg/kg i.p.,38.9%
same,U.I. ± S.E.M.,[1]; 10 mg/kg p.o.,2.82 ± 1.36
same,U.I. (delta %),[1]; 10 mg/kg p.o.,36.7%
CCCCC[C@H](O)/C=C/[C@H]1[C@H](O)CC(=O)[C@@H]1C/C=C\CCCC(=O)O [PGE2],decreasing the blood loss of the gastric mucosa induced by non-steroidal antiphlogistics,[2],significantly effective
same,therapy of peptic ulcers,[2],significantly effective
same,side effects,[3],diarrhogen side effects
same,ED50,"[4]; po, orally",0.03 mg/kg
same,ED50,"[4]; sc, subcutaneously",0.1 mg/kg
same,cytoprotective effect compared with PGI2,[4]; oral application,more effective
"CCCCC[C@H](O)/C=C/[C@@H]1[C@H]2C/C(=C/CCCC(=O)O)O[C@H]2C[C@H]1O [PGI2, prostacyclin]",U.I. ± S.E.M.,[1]; [6],5.4 ± 1.54
same,U.I. (delta %),[1]; [6],70.0%
same,ED50,"[4]; po, orally",1.8 mg/kg
same,ED50,"[4]; sc, subcutaneously",0.04 mg/kg
same,cytoprotective effect compared with PGE2,[4]; administered subcutaneously,stronger cytoprotective effect than PGE2
same,stability compared with PGE2,[5],more unstable than is PGE2
COc1ccc2c(c1)c(CC(=O)O)c(C)n2C(=O)c1ccc(Cl)cc1 [indomethacin],side effects,[3],ulcerogenic side effects
